The text below walks through data of PubChem BioAssay AID2060904 (Molecular Pharmacology Branch, DTP, NCI, 2025).

By viability, T/C is commonly meant the result in the treated group divided by that in the control group, in per cent.

Molecules are shown by their SMILES.
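Further: spheroids exposed to compound for seven days before viability readout.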

The subject of the first test is 349418-098-R-PDC complex spheroid viability. Nature of the test: Anticancer human tumor 349418-098-R-PDC patient-derived lung adenocarcinoma cell line growth inhibition [RAS]. Particulars: second compound 1 µM; first compound 0.1 µM; stronger effect = lower value. In a few lines:
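Agents were tested in combination matrices in half-log decrements from a top concentration at or near clinical Cmax (10 microM if undetermined). Targets were multi-cell spheroids of tumour lines plus HUVEC and MSC stromal cells.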
As for `C[C@@H](NC(=O)c1ncnc(N)c1Cl)c1ncc(C(=O)Nc2cc(C(F)(F)F)c(Cl)cn2)s1` + C#Cc1c(F)ccc2cc(O)cc(-c3ncc4c(N5CC6CCC(C5)N6)nc(OCC56CCCN5CC(F)C6)nc4c3F)c12, the viability, T/C was 93.8%.

Staying with this test, now noted: second compound 1 µM; first compound 0.316 µM; stronger effect = lower value.
Consider `CC1(O)CCCC1n1c(=O)c(C(F)F)cc2cnc(NC3CCN(S(C)(=O)=O)CC3)nc21` (stereo unspecified) + C#Cc1c(F)ccc2cc(O)cc(-c3ncc4c(N5CC6CCC(C5)N6)nc(OCC56CCCN5CC(F)C6)nc4c3F)c12, for which the viability, T/C is 28.9%.

`CCC(CC)c1cc(NC2CCC(N)C2)n2nccc2n1` (stereo unspecified) + C#Cc1c(F)ccc2cc(O)cc(-c3ncc4c(N5CC6CCC(C5)N6)nc(OCC56CCCN5CC(F)C6)nc4c3F)c12: the viability, T/C is 67.2%.

Turning to `CCN1CCN(Cc2ccc(Nc3ncc(F)c(-c4cc(F)c5nc(C)n(C(C)C)c5c4)n3)nc2)CC1` + C#Cc1c(F)ccc2cc(O)cc(-c3ncc4c(N5CC6CCC(C5)N6)nc(OCC56CCCN5CC(F)C6)nc4c3F)c12, the viability, T/C is 20.5%.

With `C[C@@H](NC(=O)c1ncnc(N)c1Cl)c1ncc(C(=O)Nc2cc(C(F)(F)F)c(Cl)cn2)s1` + C#Cc1c(F)ccc2cc(O)cc(-c3ncc4c(N5CC6CCC(C5)N6)nc(OCC56CCCN5CC(F)C6)nc4c3F)c12, the viability, T/C is 107%.

The same test, now with this note: second compound 1 µM; first compound 1 µM; stronger effect = lower value.
Turning to `CC1(O)CCCC1n1c(=O)c(C(F)F)cc2cnc(NC3CCN(S(C)(=O)=O)CC3)nc21` (stereo unspecified) + C#Cc1c(F)ccc2cc(O)cc(-c3ncc4c(N5CC6CCC(C5)N6)nc(OCC56CCCN5CC(F)C6)nc4c3F)c12, the viability, T/C was 26.5%.

With `CCC(CC)c1cc(NC2CCC(N)C2)n2nccc2n1` (stereo unspecified) + C#Cc1c(F)ccc2cc(O)cc(-c3ncc4c(N5CC6CCC(C5)N6)nc(OCC56CCCN5CC(F)C6)nc4c3F)c12, the viability, T/C was 48.9%.

As for `CCN1CCN(Cc2ccc(Nc3ncc(F)c(-c4cc(F)c5nc(C)n(C(C)C)c5c4)n3)nc2)CC1` + C#Cc1c(F)ccc2cc(O)cc(-c3ncc4c(N5CC6CCC(C5)N6)nc(OCC56CCCN5CC(F)C6)nc4c3F)c12, the viability, T/C is 19.9%.

Take `C[C@@H](NC(=O)c1ncnc(N)c1Cl)c1ncc(C(=O)Nc2cc(C(F)(F)F)c(Cl)cn2)s1` + C#Cc1c(F)ccc2cc(O)cc(-c3ncc4c(N5CC6CCC(C5)N6)nc(OCC56CCCN5CC(F)C6)nc4c3F)c12: the viability, T/C was 76.7%.

The test is the same for the next values; noted with them: second compound 1 µM; first compound 3.16 µM; stronger effect = lower value.
Consider `CC1(O)CCCC1n1c(=O)c(C(F)F)cc2cnc(NC3CCN(S(C)(=O)=O)CC3)nc21` (stereo unspecified) + C#Cc1c(F)ccc2cc(O)cc(-c3ncc4c(N5CC6CCC(C5)N6)nc(OCC56CCCN5CC(F)C6)nc4c3F)c12, for which the viability, T/C was 19.9%.

Regarding `CCC(CC)c1cc(NC2CCC(N)C2)n2nccc2n1` (stereo unspecified) + C#Cc1c(F)ccc2cc(O)cc(-c3ncc4c(N5CC6CCC(C5)N6)nc(OCC56CCCN5CC(F)C6)nc4c3F)c12, the viability, T/C is 3.08%.

Consider `C[C@@H](NC(=O)c1ncnc(N)c1Cl)c1ncc(C(=O)Nc2cc(C(F)(F)F)c(Cl)cn2)s1` + C#Cc1c(F)ccc2cc(O)cc(-c3ncc4c(N5CC6CCC(C5)N6)nc(OCC56CCCN5CC(F)C6)nc4c3F)c12, for which the viability, T/C is 47.6%.

The same test, now with this note: second compound 1 µM; first compound 10 µM; stronger effect = lower value.
On to `CC1(O)CCCC1n1c(=O)c(C(F)F)cc2cnc(NC3CCN(S(C)(=O)=O)CC3)nc21` (stereo unspecified) + C#Cc1c(F)ccc2cc(O)cc(-c3ncc4c(N5CC6CCC(C5)N6)nc(OCC56CCCN5CC(F)C6)nc4c3F)c12, for which the viability, T/C was 4.34%.

For `CCC(CC)c1cc(NC2CCC(N)C2)n2nccc2n1` (stereo unspecified) + C#Cc1c(F)ccc2cc(O)cc(-c3ncc4c(N5CC6CCC(C5)N6)nc(OCC56CCCN5CC(F)C6)nc4c3F)c12, the viability, T/C was 3.26%.

Take `C[C@@H](NC(=O)c1ncnc(N)c1Cl)c1ncc(C(=O)Nc2cc(C(F)(F)F)c(Cl)cn2)s1` + C#Cc1c(F)ccc2cc(O)cc(-c3ncc4c(N5CC6CCC(C5)N6)nc(OCC56CCCN5CC(F)C6)nc4c3F)c12: the viability, T/C was 34.5%.

Still in this test, the particulars now being: second compound 3.16 µM; first compound 0.00316 µM; stronger effect = lower value.
Consider `CCN1CCN(Cc2ccc(Nc3ncc(F)c(-c4cc(F)c5nc(C)n(C(C)C)c5c4)n3)nc2)CC1` + C#Cc1c(F)ccc2cc(O)cc(-c3ncc4c(N5CC6CCC(C5)N6)nc(OCC56CCCN5CC(F)C6)nc4c3F)c12, for which the viability, T/C is 74.1%.

The test is the same for the next values; noted with them: second compound 3.16 µM; first compound 0.01 µM; stronger effect = lower value.
As for `CCN1CCN(Cc2ccc(Nc3ncc(F)c(-c4cc(F)c5nc(C)n(C(C)C)c5c4)n3)nc2)CC1` + C#Cc1c(F)ccc2cc(O)cc(-c3ncc4c(N5CC6CCC(C5)N6)nc(OCC56CCCN5CC(F)C6)nc4c3F)c12, the viability, T/C is 51.3%.

Still in this test, the particulars now being: second compound 3.16 µM; first compound 0.0316 µM; stronger effect = lower value.
In the case of `CC1(O)CCCC1n1c(=O)c(C(F)F)cc2cnc(NC3CCN(S(C)(=O)=O)CC3)nc21` (stereo unspecified) + C#Cc1c(F)ccc2cc(O)cc(-c3ncc4c(N5CC6CCC(C5)N6)nc(OCC56CCCN5CC(F)C6)nc4c3F)c12, the viability, T/C is 67.6%.

With `CCC(CC)c1cc(NC2CCC(N)C2)n2nccc2n1` (stereo unspecified) + C#Cc1c(F)ccc2cc(O)cc(-c3ncc4c(N5CC6CCC(C5)N6)nc(OCC56CCCN5CC(F)C6)nc4c3F)c12, the viability, T/C is 75%.

As for `CCN1CCN(Cc2ccc(Nc3ncc(F)c(-c4cc(F)c5nc(C)n(C(C)C)c5c4)n3)nc2)CC1` + C#Cc1c(F)ccc2cc(O)cc(-c3ncc4c(N5CC6CCC(C5)N6)nc(OCC56CCCN5CC(F)C6)nc4c3F)c12, the viability, T/C was 32.8%.

As for `C[C@@H](NC(=O)c1ncnc(N)c1Cl)c1ncc(C(=O)Nc2cc(C(F)(F)F)c(Cl)cn2)s1` + C#Cc1c(F)ccc2cc(O)cc(-c3ncc4c(N5CC6CCC(C5)N6)nc(OCC56CCCN5CC(F)C6)nc4c3F)c12, the viability, T/C was 86.6%.
